For one test, the system named is C. albicans (ATCC 90028). Nature of the test: CO-ADD antifungal assay, growth inhibition (OD630). It counts as cell-based, Candida albicans. The following applies: for MIC / Dmax: Candida albicans, ATCC90028; for MIC / MIC C. albicans: predicted or measured MIC, ≥75% growth inhibition, 36 h; for MIC / Dmax / MIC C. albicans / Dmax C. albicans, maximum % inhibition: up to 32 μg/mL; for Dmax: read-out: Dmax C. albicans, maximum % inhibition.

Test [1] concerns C. neoformans (ATCC 208821). Nature of the test: CO-ADD antifungal assay, growth inhibition (resazurin, OD600-570). It counts as cell-based, Cryptococcus neoformans. Conditions: up to 32 μg/mL; for MIC / Dmax: Cryptococcus neoformans, ATCC208821; for MIC / MIC C. neoformans: predicted or measured MIC, ≥75% growth inhibition, 36 h; for Dmax: read-out: Dmax C. neoformans, maximum % inhibition.

The next test concerns MRC-5 cells. Nature of the test: MRC-5 cell viability, dose-response treatment, MTT assay. It counts as cell-based, human. The following applies: MRC-5 cells, MTT, 72 h, pH 7.4, n = 6, this work. In general terms: Tetrazolium assays rely on reduction of a dye to a coloured formazan, in cell work by metabolically active cells.
Setting [2] is: Homo sapiens, MRC5, read-out: IC50 ± SD.
Where [3] appears, read: Homo sapiens, MRC5, read-out: IC50 ± SD (µg/mL).

What is called MIC is the lowest concentration found to suppress growth.

Counter-ions that a name gives are not always drawn. Like-named read-outs stand apart in the source and are kept apart here.

Turning to `O=C(O)CC(O)(CC(=O)O)C(=O)O` [Compound 1, Trisodium citrate, reference compound], the MIC (in the test on C. albicans (ATCC 90028); in test [1]) was more than 32 µg/mL in each case. Also, the Dmax in the test with C. albicans (ATCC 90028) was 0.28%; in test [1] it was -8.24%. In addition, the IC50 with MRC-5 cells (setting [2]) is more than 100 µM; in the test with MRC-5 cells (setting [3]) it was more than 29.4 µg/mL.

For the compound `Oc1cc2ccccc2cc1O` [Compound 2, 2,3-dihydroxynaphthalene, reference compound], the MIC (with C. albicans (ATCC 90028); in test [1]) was more than 32 µg/mL each time. Further, the Dmax in the test with C. albicans (ATCC 90028) was 16.3%; in test [1], -9.97%. Further, the IC50 is more than 100 µM with MRC-5 cells (setting [2]) and more than 16 µg/mL in the test on MRC-5 cells (setting [3]).

For `O=C(O)c1ccccc1O` [Compound 6, salicylic acid, reference compound], the MIC (in the test on C. albicans (ATCC 90028); in test [1]) was more than 32 µg/mL throughout. Besides, the Dmax in the test with C. albicans (ATCC 90028) was 30.9%; in test [1], -10.7%. The IC50 is more than 100 µM in the test with MRC-5 cells (setting [2]) and more than 13.8 µg/mL in the test with MRC-5 cells (setting [3]).

As to `[K+].[K+].c1ccc2cc3c(cc2c1)[O][Ti-2]12([O]3)([O]c3cc4ccccc4cc3[O]1)[O]c1cc3ccccc3cc1[O]2` [Compound 8, K2[Ti(Naphthalene-2,3-diolate)3]], in the test on C. albicans (ATCC 90028), the “MIC C. albicans” value was more than 32 µg/mL and the “Dmax C. albicans, maximum % inhibition” value stood at 57.57%. In addition, in test [1], the “MIC C. neoformans” value was more than 32 µg/mL and the “Dmax C. neoformans, maximum % inhibition” value is recorded as −1.45%. For the same compound, the “IC50 ± SD (µg/mL)” value in the test with MRC-5 cells is on record as >>65.5 µg/mL. For the same compound, the IC50 in the test on MRC-5 cells (read-out: IC50 ± SD) is more than 100 µM.

As to `O=C(O)c1ccc(-n2nc3nc2-c2ccccc2[O][Ti]2([O]c4ccccc4-3)[O]c3ccccc3-c3nc(n(-c4ccc(C(=O)O)cc4)n3)-c3ccccc3[O]2)cc1` [Compound 10, titanium(IV) bis(deferasirox)], in the test with C. albicans (ATCC 90028), the “MIC C. albicans” value was more than 32 µg/mL and the “Dmax C. albicans, maximum % inhibition” value is reported as 5.74%. Also, in test [1], the “MIC C. neoformans” value was more than 32 µg/mL and the “Dmax C. neoformans, maximum % inhibition” value is reported as −5.72%.

Consider `O=C([O-])C(=O)O.O=C([O-])C(=O)O.[K+].[K+].[O]=[Ti]` [Compound 14, Potassium dioxalatoxotitanate(IV) dihydrate], for which the “C. albicans MIC value in units of molarity” value with C. albicans (ATCC 90028) (converted from 32 μg/mL (Table S1)) was found to be 90.4 µM. Moreover, in the test on C. albicans (ATCC 90028), the “MIC C. albicans” value was 32 µg/mL and the “Dmax C. albicans, maximum % inhibition” value turned out to be 77.3%. Moreover, the “Dmax C. albicans, maximum % inhibition” value in the test on C. albicans (ATCC 90028) (listed as K2[TiO(Oxalate)2]) was “greater than 75%”. Further, in test [1], the “MIC C. neoformans” value was more than 32 µg/mL. For the same compound, the “IC50 ± SD (µg/mL)” value in the test on MRC-5 cells is reported as >>35.4 µg/mL. The IC50 with MRC-5 cells (read-out: IC50 ± SD) is more than 100 µM.

In the case of [Cu(Deferasirox)(H2O)]2 [Compound 15], in the test on C. albicans (ATCC 90028), the “MIC C. albicans” value is more than 32 µg/mL and the “Dmax C. albicans, maximum % inhibition” value is listed as 34.0%. The “MIC C. neoformans” value in test [1] is more than 32 µg/mL. Besides, in the test on MRC-5 cells, the “IC50 ± SD” value turned out to be 7.70 ± 1.47 µg/mL. Besides, in the test with MRC-5 cells (read-out: IC50 ± SD), the IC50 is 8.4 ± 1.62 µM.

(Values after PMC8868518, “Exploring Titanium(IV) Complexes as Potential Antimicrobial Compounds” (Antibiotics, 2022).)
